# Laboratory results taken from patent publication US10993983B2, “Cyclic peptide epitopes and small-molecule mimics for inducing autophagy” (TRUSTEES OF TUFTS COLLEGE, priority 2016, dated 2021).
# Marks after values point to notes of the source that are not given here. Where no end group is shown, it is not given here.
# Tests used:
# LC3 = LC3 marker assay (LC3-I to LC3-II conversion immunoblot);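 for Activity (μM) 10, LC3 assay activity: HeLa cells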;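 for Activity (μM) 100, LC3 assay activity: HeLa cells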;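 for Activity (μM) 20, LC3 assay activity: HeLa cells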;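 for Activity (μM) 30, LC3 assay activity: HeLa cells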;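 for Activity (μM) 50, LC3 assay activity: HeLa cells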; type: cell-based; set-up: key: −: activity not reported; 0: decreased vs. WT; +: similar to WT; ++: modest increase vs. WT; +++: significant increase vs. WT; conditions: for Activity (μM) 10, LC3 assay activity: 10 μM; for Activity (μM) 30, LC3 assay activity: 30 μM; for Activity (μM) 50, LC3 assay activity: 50 μM; for Activity (μM) 10, starred cell, LC3 assay activity: Table 8, 10 μM marked * (footnote: data taken at 20 instead of 30 μM); for Activity (μM) 100, LC3 assay activity: 100 μM
# Experimental: (§1) Cells were treated with peptide in OPTI-MEM (Thermo Scientific) acidified with 0.15% (v/v) 6N HCl for 3 hour. Cells were rinsed with Dulbecco's phosphate buffered saline (PBS) and lysed in lysis buffer (20 mM HEPES, 150 mM NaCl, 1 mM EDTA, 1% Triton X-100, protease inhibitor cocktail (Roche) on ice for 1 hour. Cell lysates were centrifuged at 16,000 g for 10 min at 4° C. and analyzed by SDS-PAGE and transferred to PVDF membranes. The membranes were blocked 5% non-fat dry milk (NFDM) in PBST (PBS+0.05% Tween-20) for 1 hour, then incubated overnight at 4° C. with primary antibody in 5% NFDM in PBST. The blots were washed with PBST and incubated with HRP-conjugated secondary antibodies diluted in 5% NFDM in PBST for 1 hour at room temperature. Membranes were washed with PBST and visualized with SuperSignal West Pico Chemiluminescent Substrate (Thermo Scientific). Semi-quantitative results were obtained by noting the lowest concentration at which both p62 degradation and LC3-I to LC3-II conversion were observed.
# (§2) Compounds 1-10 were evaluated using the assays described in Examples 4 and 5. Activity for each compound was measured in the p62 degradation assay and the LC3 marker assay as described herein. The activity at each concentration of peptide is given as, for example, (0/+) where 0 would be the p62/actin assay activity and + would be the LC3 assay activity.
# p62 = p62 degradation assay (p62/actin immunoblot);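 for Activity (μM) 10, p62/actin assay activity: HeLa cells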;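 for Activity (μM) 100, p62/actin assay activity: HeLa cells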;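 for Activity (μM) 20, p62/actin assay activity: HeLa cells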;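 for Activity (μM) 30, p62/actin assay activity: HeLa cells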;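 for Activity (μM) 50, p62/actin assay activity: HeLa cells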; type: cell-based; set-up: key: −: activity not reported; 0: decreased vs. WT; +: similar to WT; ++: modest increase vs. WT; +++: significant increase vs. WT; conditions: for Activity (μM) 10, p62/actin assay activity: 10 μM; for Activity (μM) 30, p62/actin assay activity: 30 μM; for Activity (μM) 50, p62/actin assay activity: 50 μM; for Activity (μM) 10, starred cell, p62/actin assay activity: Table 8, 10 μM marked * (footnote: data taken at 20 instead of 30 μM); for Activity (μM) 100, p62/actin assay activity: 100 μM
# Experimental: as §1, §2
# [1] = Table 8, control compound T25, second symbol
# [2] = Table 8, control compound T25, first symbol
# [3] = Table 7, control compound T25, second symbol
# [4] = Table 7, control compound T25, first symbol
# [5] = Table 3, control vehicle, second symbol
# [6] = Table 3, control vehicle, first symbol
# [7] = Table 6, control DMSO, second symbol
# [8] = Table 6, control DMSO, first symbol
sequence,measurement,setting,value
VCNACFHIWH [Compound 54],"Activity (μM) 10, LC3 assay activity",LC3; [1],0
same,"Activity (μM) 30, LC3 assay activity",LC3; [1],0
same,"Activity (μM) 50, LC3 assay activity",LC3; [1],0
same,"Activity (μM) 10, p62/actin assay activity",p62; [2],+
same,"Activity (μM) 30, p62/actin assay activity",p62; [2],++
same,"Activity (μM) 50, p62/actin assay activity",p62; [2],++
VCNACFHIWH [Compound 69],"Activity (μM) 30, LC3 assay activity",LC3; [1],0/0
same,"Activity (μM) 50, LC3 assay activity",LC3; [1],+++
same,"Activity (μM) 10, starred cell, LC3 assay activity",LC3; second symbol,0/0*
same,"Activity (μM) 30, p62/actin assay activity",p62; [2],0/0
same,"Activity (μM) 50, p62/actin assay activity",p62; [2],++
same,"Activity (μM) 10, starred cell, p62/actin assay activity",p62; first symbol,0/0*
VCNATCHIWH [Compound 32],"Activity (μM) 30, LC3 assay activity",LC3; [3],0
same,"Activity (μM) 50, LC3 assay activity",LC3; [3],0
same,"Activity (μM) 100, LC3 assay activity",LC3; [3],0
same,"Activity (μM) 30, p62/actin assay activity",p62; [4],++
same,"Activity (μM) 50, p62/actin assay activity",p62; [4],++
same,"Activity (μM) 100, p62/actin assay activity",p62; [4],++
VCNATCHIWH [Compound 51],"Activity (μM) 50, LC3 assay activity",LC3; [1],+++/+++
same,"Activity (μM) 100, LC3 assay activity",LC3; [1],+++/+++
same,"Activity (μM) 50, p62/actin assay activity",p62; [2],+++/+++
same,"Activity (μM) 100, p62/actin assay activity",p62; [2],+++/+++
VCNACFHIWH [Compound 70],"Activity (μM) 30, LC3 assay activity",LC3; [1],0/0
same,"Activity (μM) 50, LC3 assay activity",LC3; [1],+
same,"Activity (μM) 10, starred cell, LC3 assay activity",LC3; second symbol,0/0*
same,"Activity (μM) 30, p62/actin assay activity",p62; [2],0/0
same,"Activity (μM) 50, p62/actin assay activity",p62; [2],0
same,"Activity (μM) 10, starred cell, p62/actin assay activity",p62; first symbol,0/0*
VCNATCHIWH [Compound 36],"Activity (μM) 50, LC3 assay activity",LC3; [1],0/0
same,"Activity (μM) 100, LC3 assay activity",LC3; [1],0/0
same,"Activity (μM) 50, p62/actin assay activity",p62; [2],0/0
same,"Activity (μM) 100, p62/actin assay activity",p62; [2],0/0
"VWNATFHIWHD (not fully specified (N-terminus, C-terminus)) [Compound 6, likely pa-11mer]","Activity (μM) 10, LC3 assay activity","LC3; Table 3, control vehicle, second symbol of cell",0/0
same,"Activity (μM) 20, LC3 assay activity","LC3; 20 μM, Table 3, control vehicle, second symbol",0/0
same,"Activity (μM) 30, LC3 assay activity",LC3; [1],0/0
same,"Activity (μM) 50, LC3 assay activity",LC3; [5],0/0
same,"Activity (μM) 50, LC3 assay activity",LC3; [1],0
same,"Activity (μM) 100, LC3 assay activity",LC3; [5],0/0
same,"Activity (μM) 100, LC3 assay activity",LC3; [1],0/0
same,"Activity (μM) 10, starred cell, LC3 assay activity",LC3; second symbol,0/0*
same,"Activity (μM) 10, p62/actin assay activity","p62; Table 3, control vehicle, first symbol of cell",0/0
same,"Activity (μM) 20, p62/actin assay activity","p62; 20 μM, Table 3, control vehicle, first symbol",0/0
same,"Activity (μM) 30, p62/actin assay activity",p62; [2],0/0
same,"Activity (μM) 50, p62/actin assay activity",p62; [6],0/0
same,"Activity (μM) 50, p62/actin assay activity",p62; [2],++
same,"Activity (μM) 100, p62/actin assay activity",p62; [6],0/0
same,"Activity (μM) 100, p62/actin assay activity",p62; [2],0/0
same,"Activity (μM) 10, starred cell, p62/actin assay activity",p62; first symbol,0/0*
VCNACFHIWH [Compound 57],"Activity (μM) 10, LC3 assay activity",LC3; [1],0/0
same,"Activity (μM) 30, LC3 assay activity",LC3; [1],0
same,"Activity (μM) 50, LC3 assay activity",LC3; [1],0
same,"Activity (μM) 10, p62/actin assay activity",p62; [2],0/0
same,"Activity (μM) 30, p62/actin assay activity",p62; [2],+
same,"Activity (μM) 50, p62/actin assay activity",p62; [2],+
VCNATCHIWH [Compound 29],"Activity (μM) 30, LC3 assay activity",LC3; [3],0/0
same,"Activity (μM) 50, LC3 assay activity",LC3; [3],0
same,"Activity (μM) 100, LC3 assay activity",LC3; [3],0
same,"Activity (μM) 30, p62/actin assay activity",p62; [4],0/0
same,"Activity (μM) 50, p62/actin assay activity",p62; [4],+
same,"Activity (μM) 100, p62/actin assay activity",p62; [4],++
VWNATCHIWC [Compound 65],"Activity (μM) 50, LC3 assay activity",LC3; [1],0/0
same,"Activity (μM) 50, p62/actin assay activity",p62; [2],0/0
VCNATCHIWH [Compound 18],"Activity (μM) 10, LC3 assay activity",LC3; [7],0/0
same,"Activity (μM) 30, LC3 assay activity",LC3; [7],0/0
same,"Activity (μM) 50, LC3 assay activity",LC3; [7],0/0
same,"Activity (μM) 100, LC3 assay activity",LC3; [7],0/0
same,"Activity (μM) 10, p62/actin assay activity",p62; [8],0/0
same,"Activity (μM) 30, p62/actin assay activity",p62; [8],0/0
same,"Activity (μM) 50, p62/actin assay activity",p62; [8],0/0
same,"Activity (μM) 100, p62/actin assay activity",p62; [8],0/0
